Measured values: a compilation of properties of binary mixtures (doi:10.1016/j.molliq.2020.114573)

Experiment: xn = mol fraction of the nth substance listed
Conditions: 101.3 kPa

CC1COC(=O)O1 (configuration not stated) + CCCC[n+]1ccn(C)c1.O=S(=O)([N-]S(=O)(=O)C(F)(F)F)C(F)(F)F
viscosity [mPa·s]
Conditions	x2 = 0	x2 = 0.1013	x2 = 0.1557	x2 = 0.3071	x2 = 0.4128	x2 = 0.5045	x2 = 0.6	x2 = 0.7	x2 = 0.8079	x2 = 0.8776
288.15 K	3.063	5.14	6.77	12.5	18.43	24.64	32.48	43.74	55.8	64.4
293.15 K	2.746	4.535	5.9	10.63	15.39	20.32	–	35.25	44.52	–
298.15 K	2.476	–	5.19	9.12	13.04	–	21.83	–	36.14	41.16
303.15 K	2.246	3.605	4.596	7.92	11.15	–	18.29	24.03	–	–
308.15 K	2.049	–	–	6.95	–	–	15.52	20.24	24.9	28.07
313.15 K	1.879	2.945	3.69	6.14	8.42	–	13.31	17.63	21.07	–
318.15 K	1.73	2.683	3.339	5.47	7.42	9.33	11.54	–	18.27	20.13
323.15 K	1.6	2.455	3.038	4.91	–	8.21	10.09	–	16.06	17.66
328.15 K	1.486	2.258	2.778	4.422	5.88	7.29	8.9	11.5	13.99	15.53
333.15 K	1.385	2.085	2.552	4.014	5.3	6.52	7.91	10.04	12.18	–
338.15 K	1.294	1.931	2.354	–	4.79	5.86	7.07	8.82	10.66	11.9
343.15 K	1.213	1.796	2.18	3.353	4.359	5.3	6.36	7.8	9.39	10.46
348.15 K	–	1.676	–	3.085	3.984	4.82	5.76	6.96	8.33	9.23

CC[n+]1ccn(C)c1.O=S(=O)([N-]S(=O)(=O)C(F)(F)F)C(F)(F)F + CC1COC(=O)O1
Conditions	viscosity [mPa·s]
288.15 K, x1 = 0.1	4.724
288.15 K, x1 = 0.2127	7.25
288.15 K, x1 = 0.3007	9.74
288.15 K, x1 = 0.4227	14.35
288.15 K, x1 = 0.5146	18.39
288.15 K, x1 = 0.6015	23.02
288.15 K, x1 = 0.658	25.85
288.15 K, x1 = 0.7004	28.44
288.15 K, x1 = 0.7601	31.76
288.15 K, x1 = 0.8098	35.48
288.15 K, x1 = 0.8657	38.62
288.15 K, x1 = 0.8868	40.67
288.15 K, x1 = 0.9533	44.93
288.15 K, x1 = 1	47.8
293.15 K, x1 = 0.1	4.184
293.15 K, x1 = 0.2127	6.34
293.15 K, x1 = 0.4227	11.98
293.15 K, x1 = 0.5146	15.03
293.15 K, x1 = 0.6015	19.33
293.15 K, x1 = 0.658	21.63
293.15 K, x1 = 0.7004	23.75
293.15 K, x1 = 0.7601	26.4
293.15 K, x1 = 0.7977	28.37
293.15 K, x1 = 0.8098	29.37
293.15 K, x1 = 0.8657	31.88
293.15 K, x1 = 0.8868	33.56
293.15 K, x1 = 0.9533	36.88
298.15 K, x1 = 0.1	3.737
298.15 K, x1 = 0.3007	7.34
298.15 K, x1 = 0.4227	10.32
298.15 K, x1 = 0.5146	12.87
298.15 K, x1 = 0.6015	16.3
298.15 K, x1 = 0.658	18.51
298.15 K, x1 = 0.7601	22.25
298.15 K, x1 = 0.7977	23.88
298.15 K, x1 = 0.8098	24.66
298.15 K, x1 = 0.8657	26.69
298.15 K, x1 = 0.8868	28.06
298.15 K, x1 = 0.9533	30.76
298.15 K, x1 = 1	32.42
303.15 K, x1 = 0.2127	4.96
303.15 K, x1 = 0.3007	6.46
303.15 K, x1 = 0.5146	11.13
303.15 K, x1 = 0.6015	14.61
303.15 K, x1 = 0.658	16.21
303.15 K, x1 = 0.7004	17.58
303.15 K, x1 = 0.7977	20.34
303.15 K, x1 = 0.8098	20.96
303.15 K, x1 = 0.8657	22.62
303.15 K, x1 = 0.8868	23.76
303.15 K, x1 = 0.9533	25.94
303.15 K, x1 = 1	27.26
308.15 K, x1 = 0.1	3.037
308.15 K, x1 = 0.2127	4.435
308.15 K, x1 = 0.3007	5.73
308.15 K, x1 = 0.5146	9.72
308.15 K, x1 = 0.658	14.09
308.15 K, x1 = 0.7004	15.35
308.15 K, x1 = 0.7977	17.84
308.15 K, x1 = 0.8098	18.26
308.15 K, x1 = 0.8657	19.38
308.15 K, x1 = 0.8868	20.35
308.15 K, x1 = 0.9533	22.14
313.15 K, x1 = 0.1	2.762
313.15 K, x1 = 0.2127	3.99
313.15 K, x1 = 0.3007	5.13
313.15 K, x1 = 0.4227	6.99
313.15 K, x1 = 0.5146	8.55
313.15 K, x1 = 0.6015	10.89
313.15 K, x1 = 0.658	12.21
313.15 K, x1 = 0.7004	13.32
313.15 K, x1 = 0.7977	15.7
313.15 K, x1 = 0.8657	17.2
313.15 K, x1 = 0.8868	17.89
313.15 K, x1 = 0.9533	19.08
318.15 K, x1 = 0.1	2.524
318.15 K, x1 = 0.2127	3.613
318.15 K, x1 = 0.4227	6.24
318.15 K, x1 = 0.5146	7.6
318.15 K, x1 = 0.658	10.64
318.15 K, x1 = 0.7601	12.82
318.15 K, x1 = 0.7977	13.74
318.15 K, x1 = 0.8098	14.09
318.15 K, x1 = 0.8657	15.18
318.15 K, x1 = 0.8868	15.85
318.15 K, x1 = 1	17.37
323.15 K, x1 = 0.1	2.318
323.15 K, x1 = 0.2127	3.292
323.15 K, x1 = 0.3007	4.173
323.15 K, x1 = 0.4227	5.6
323.15 K, x1 = 0.5146	6.79
323.15 K, x1 = 0.658	9.31
323.15 K, x1 = 0.7004	10.12
323.15 K, x1 = 0.7601	11.2
323.15 K, x1 = 0.7977	11.96
323.15 K, x1 = 0.8098	12.34
323.15 K, x1 = 0.8657	13.32
323.15 K, x1 = 0.8868	13.92
323.15 K, x1 = 0.9533	15.09
323.15 K, x1 = 1	15.34
328.15 K, x1 = 0.1	2.138
328.15 K, x1 = 0.3007	3.8
328.15 K, x1 = 0.6015	7.37
328.15 K, x1 = 0.658	8.23
328.15 K, x1 = 0.7004	8.93
328.15 K, x1 = 0.8098	10.81
328.15 K, x1 = 0.8657	11.71
328.15 K, x1 = 0.8868	12.21
328.15 K, x1 = 0.9533	13.31
328.15 K, x1 = 1	13.63
333.15 K, x1 = 0.2127	2.771
333.15 K, x1 = 0.4227	4.607
333.15 K, x1 = 0.5146	5.53
333.15 K, x1 = 0.6015	6.52
333.15 K, x1 = 0.7601	8.7
333.15 K, x1 = 0.7977	9.28
333.15 K, x1 = 0.8098	9.55
333.15 K, x1 = 0.8657	10.33
333.15 K, x1 = 0.8868	10.75
333.15 K, x1 = 0.9533	11.76
333.15 K, x1 = 1	12.17
338.15 K, x1 = 0.2127	2.558
338.15 K, x1 = 0.3007	3.195
338.15 K, x1 = 0.4227	4.205
338.15 K, x1 = 0.5146	5.03
338.15 K, x1 = 0.6015	5.88
338.15 K, x1 = 0.658	6.52
338.15 K, x1 = 0.7004	7.07
338.15 K, x1 = 0.7601	7.75
338.15 K, x1 = 0.7977	8.26
338.15 K, x1 = 0.8098	8.49
338.15 K, x1 = 0.8657	9.18
338.15 K, x1 = 0.8868	9.55
338.15 K, x1 = 0.9533	10.42
338.15 K, x1 = 1	10.88
343.15 K, x1 = 0.1	1.712
343.15 K, x1 = 0.2127	2.37
343.15 K, x1 = 0.3007	2.947
343.15 K, x1 = 0.4227	3.852
343.15 K, x1 = 0.6015	5.33
343.15 K, x1 = 0.658	5.88
343.15 K, x1 = 0.7004	6.33
343.15 K, x1 = 0.8657	8.2
343.15 K, x1 = 0.8868	8.52
343.15 K, x1 = 0.9533	9.3
343.15 K, x1 = 1	9.76
348.15 K, x1 = 0.3007	2.729
348.15 K, x1 = 0.4227	3.549
348.15 K, x1 = 0.5146	4.215
348.15 K, x1 = 0.6015	4.9
348.15 K, x1 = 0.7004	5.77
348.15 K, x1 = 0.7601	6.34
348.15 K, x1 = 0.7977	6.71
348.15 K, x1 = 0.8098	6.83
348.15 K, x1 = 0.8657	7.35
348.15 K, x1 = 0.8868	7.64
348.15 K, x1 = 0.9533	8.33
348.15 K, x1 = 1	8.78
